What was measured:
rat aorta = assay: Study on isolated vessels: vascular relaxing effect on a rat aorta contracted by potassium (80 mM); design: species or system Wistar rat; conditions: rat aorta rings without endothelium contracted by potassium (80 mM)
Procedure: The thoracic aorta of Wistar rats (325-375 g) that have been anaesthetized by the intraperitoneal route with sodium pentobarbital (30 mg/kg) is removed and dissected into rings 3 mm in length; the endothelium is removed by gentle abrasion using a piece of wood. Each ring is connected to a Statham pressure sensor (UC2-Gould). The initial pressure applied is 2.5 g. The physiological solution used, maintained at 37° C., has the following composition (mM): NaCl 112; KCl 5; KH2 PO4 1; MgSO4 1.2; CaCl2 2.5; NaHCO3 25; glucose 11.; EDTA 0.026. After a stabilization period of 90 minutes, the aorta rings are subjected to a hyperpotassic medium (80 MM KCl and 37 mM NaCl). When the contraction is stable, cumulative concentrations of compound are added to the medium every 15 minutes. The relaxation values obtained enable calculation of the IC50.

cardiac cells = assay: Oxidative necrosis of cardiac cells induced by hypoxanthine/xanthine-oxidase (XO + HX); format: cell-based, rat (newborn); conditions: Rattus norvegicus, 4 h
Procedure: The cardiac cells of newborn rats are used between the 5th and 6th days after placing in culture. Oxidative necrosis is induced by the free radical-producing enzymatic system hypoxanthine (HX, 1 -mm) and xanthineoxidase (XO, 10 mU/ml). The necrosis is evaluated 4 hours after the addition of XO/HX by measuring by spectrophotometry the cytosolic α-hydroxybutyrate dehydrogenase (a-HBDH) activity liberated in the supernatant. The cells are treated with the test compounds 16 hours and 1 hour before the beginning of the experiment after renewing the medium. At the beginning of the experiment, the treatment is carried out again one last time.
Table 3 lists the necrosis indices of cardiac cells induced by the hypoxanthine/xanthine-oxidase system alone or in the presence of increasing concentrations of the compounds of the invention.

human LDLs = assay: Modification of human LDLs by copper sulphate (lipid peroxidation, MDA production); format: biochemical; conditions: copper sulphate 5×10^-6 M, 24 hours; read-out: IC50, inhibition of copper-induced modification (MDA production) of human LDLs
Procedure: Human LDLs are incubated for 24 hours in the presence of copper sulphate (5×10^-6 M) and in the absence or presence of the compounds tested (10^-7 M to 10^-4 M). After incubation, the peroxidation of the LDLs is evaluated by electrophoresis on agar gel and by the formation of one of the products of lipid peroxidation malonic dialdehyde (MDA), (Parthasarathy S., Young S. G., Witztum J. L., Pittman R. C. and Steinberg, D.; J. Clin. invest. 77; 641-644, 1986).
The activity of the tested compounds is evaluated by calculating those concentrations (IC50) that reduce the production of MDA by 50% compared with control experiments in the absence of the tested compound.

pigs = assay: Myocardial ischaemia induced by coronary stenosis in pigs; format: in vivo, Large White pig
Procedure: The study is carried out on "Large White" pigs of both sexes aged 3 months and weighing 21 to 26 kg. The animals are tranquillized using midazolam (I mg/kg i.m.), then anaesthetized with sodium thiopental (8 mg/kg i.v.). The anaesthesia is maintained by a perfusion of 6 to 8 mg/kg/h. They are immediately intubated and ventilated with a mixture of air+O2. A "T" thoracotomy is carried out by longitudinal section of the sternum and incision between the 4th and 5th rib. The heart is suspended in a pericardial cradle made by cutting and fixing the pericardium at four points to the thoracic muscles. An electromagnetic flow ring is placed around the anterior interventricular branch of the left coronary, and a small pneumatic balloon is placed immediately downstream of that ring. This assembly is for the purpose of effecting coronary stenosis by controlling the flow. Piezoelectric crystals connected to a Triton sonomicrometer are implanted in the lower endocardium of the left ventricular wall according to a circumferential plane perpendicular to the cardiac axis. These crystals are for recording the regional myocardial contractility and endocardial ECGs in the area supplied by the stenosed coronary artery. Epicardial ECGs are also recorded in those areas by means of electrodes fixed to the myocardium. Myocardial ischaemia is effected by inflating the small balloon which induces a reduction in flow of 50 to 60 Two identical 3 minute stenoses with reproducible and reversible effects are carried out, separated by a recovery period of 55 minutes. The treatment is administered by five minutes' perfusion by the venous route 10 minutes before the stenosis perfusion of solvent before first stenosis perfusion of the compound or solvent before the second stenosis. The regional myocardial contractility is determined by the fraction of systolic shortening of the segment lengths comprised between the piezoelectric crystals. The hypokinesis in the ischaemic zone is expressed as a percentage variation in relation to the contractility measured in the control period. The modification of the epicardial and endocardial ECGs in the ischaemic zone consists in a superelevation of the segment S.T. measured in millivolts (mV).

isolated hearts of rats = assay: Hypoxia reoxygenation on the isolated heart of a rat; design: species or system Wistar rat
Procedure: The hearts of male Wistar rats (325-375 g--Charles River breed) anaesthetized by the intraperitoneal route with sodium pentobarbital (30 mg/kg) are removed after the injection of heparin i.v. (1 ml/kg) and rapidly perfused by the Langendorff technique at a constant pressure of 76 mmhg and stimulated electrically at 5 Hz. The isovolumetric contractions are recorded by way of a small polyethylene balloon connected to a pressure sensor (P23-Gould) introduced into the left ventricle and inflated so as to obtain a diastolic pressure of approximately 10 mmhg. The physiological solution used, maintained at 37° C., has the following composition (mM): NaCl 118; KCl 4.7; KH2 PO4 1.2; MgCl2 1.2; CaCl2 1.3; NaHCO3 25; glucose 8, pH 7.4/95% O2 +5% CO2.
After a period of stabilization of from 15 to 30 minutes, the heart is subjected to hypoxia for 60 minutes (effected with 95% N2 and 5% CO2; PO2 <40 mmHg), followed by reoxygenation for 30 minutes; the compound is added to the incubation medium 15 minutes before and during the period of hypoxia.

[1] = 1 mg/kg intravenous before second stenosis, compared with first stenosis

SMILES: COc1ccc(CN2CCN(CCCCCOc3cc(C)c(O)c(C)c3C)CC2)c(OC)c1OC [Example 10, 4-(2,3,4-trimethoxybenzyl)-l-[5-(4-hydroxy-2,3,5-trimethylphenoxy)pentyl]piperazine]
- IC50 (rat aorta): 2000 nM
- activity at 10 µM (cardiac cells; 10^-5 M, XO + HX, control XO + HX = 100.0, read-out: necrosis index of cardiac cells, XO + HX, compound 10^-5 M): 12.6 ± 1.3%
- activity at 1 µM (cardiac cells; 10^-6 M, XO + HX, control XO + HX = 100.0, read-out: necrosis index of cardiac cells, XO + HX, compound 10^-6 M): 18.8 ± 3.7%
- activity at 0.1 µM (cardiac cells; 10^-7 M, XO + HX, control XO + HX = 100.0, read-out: necrosis index of cardiac cells, XO + HX, compound 10^-7 M): 88.8 ± 0.4%
- minimal effective concentration (cardiac cells; XO + HX induced oxidative necrosis, read-out: concentration at which compounds prove to be protective against necrosis): ≥ 0.1 µM
- IC50 (human LDLs): 30 nM
- ST superelevation, endocardial ECG, second stenosis (ST2) (pigs; 1 mg/kg i.v. before second stenosis, ST1 (solvent) of same group 3.4 ± 0.4, control ST2 2.4 ± 0.51): 1.9 ± 0.5 mV
- ST superelevation, epicardial ECG, second stenosis (ST2) (pigs; 1 mg/kg i.v. before second stenosis, ST1 (solvent) of same group 4.6 ± 1.0, control ST2 3.16 ± 1.2): 2.5 ± 0.6 mV
- % residual myocardial contractility, second stenosis (ST2) (pigs; 1 mg/kg i.v. before second stenosis, ST1 (solvent) of same group 20.4 ± 3.3, control ST2 25.2 ± 3.0): 29.4 ± 2.6%
- improvement in the regional contractility in the ischaemic zone (pigs; [1]): 50%
- reduction of the superelevation of the segment ST, endocardial electrocardiogram (pigs; [1]): 45%
- reduction of the superelevation of the segment ST, epicardial electrocardiogram (pigs; [1]): 45%
- functional recovery of the hearts during reoxygenation (isolated hearts of rats; Example 1 at 3×10^-7 M, 10 at 10^-7 M, 13 at 7×10^-7 M, 40% in the control experiments): more than 70%
- reduction of the developing contracture at the end of 30 minutes reoxygenation (isolated hearts of rats; end of 30 min reoxygenation, Example 1 at 3×10^-7 M, 10 at 10^-7 M, 13 at 7×10^-7 M, vs control): more than 70%
- Contracture, hypoxia 10 min (isolated hearts of rats; hypoxia 10 min, Example 1 at 3 × 10^-7 M, Example 10 at 10^-7 M, Example 13 at 7 × 10^-7 M, control 23.7 ± 6.8): 15.3 ± 3.7 mm Hg
- Contracture, hypoxia 30 min (isolated hearts of rats; hypoxia 30 min, Example 1 at 3 × 10^-7 M, Example 10 at 10^-7 M, Example 13 at 7 × 10^-7 M, control 33.7 ± 8.9): 16.0 ± 6.4 mm Hg
- Contracture, hypoxia 60 min (isolated hearts of rats; hypoxia 60 min, Example 1 at 3 × 10^-7 M, Example 10 at 10^-7 M, Example 13 at 7 × 10^-7 M, control 32.3 ± 7.4): 14.7 ± 4.4 mm Hg
- Contracture, reoxygenation 15 min (isolated hearts of rats; reoxygenation 15 min, Example 1 at 3 × 10^-7 M, Example 10 at 10^-7 M, Example 13 at 7 × 10^-7 M, control 20.6 ± 7.8): 7.3 ± 5.5 mm Hg
- Contracture, reoxygenation 30 min (isolated hearts of rats; reoxygenation 30 min, Example 1 at 3 × 10^-7 M, Example 10 at 10^-7 M, Example 13 at 7 × 10^-7 M, control 12.3 ± 6.1): 2.7 ± 2.7 mm Hg

From US5283246A, “Trimetazidine compounds” (Adir et Compagnie, priority 1991, dated 1994)
